Results published in ChEMBL document CHEMBL1147325, “13C-nmr spectral assignment and evaluation of the cytotoxic potential of rotenone” (1989).
Values after ≈ are worked out from the molar mass of the structure shown.

What was measured:
Type in all cases: functional
[1] = tested on: KB; assay: Cytotoxicity against human KB cells after 72 hrs; conditions: read-out: ED50 (the source's name)
[2] = tested on: Lu1; assay: Cytotoxicity against human Lu1 cells; conditions: read-out: ED50 (the source's name)
[3] = Cytotoxicity against human BC1 cells after 72 hrs; conditions: BC1, 72 h, read-out: ED50 (the source's name)
[4] = tested on: SK-MEL-2; assay: Cytotoxicity against human SK-MEL-2 cells after 72 hrs; conditions: SK-MEL-2, 72 h, read-out: ED50 (the source's name)
[5] = tested on: HT-1080; assay: Cytotoxicity against human HT1080 cells after 48 hrs; conditions: HT-1080, 48 h, read-out: ED50 (the source's name)
[6] = tested on: P388; assay: Cytotoxicity against mouse P388 cells after 48 hrs; conditions: P388, 48 h, read-out: ED50 (the source's name)
[7] = tested on: Col2; assay: Cytotoxicity against human Col2 cells after 72 hrs; conditions: Col2, 72 h, read-out: ED50 (the source's name)

## C=C(C)[C@H]1Cc2c(ccc3c2O[C@@H]2COc4cc(OC)c(OC)cc4[C@@H]2C3=O)O1 [ROTENONE]
[1]
  EC50: 0.067 µg/mL (≈ 0.17 µM)
[2]
  EC50: 0.044 µg/mL (≈ 0.112 µM)
[3]
  EC50: 0.039 µg/mL (≈ 0.0989 µM)
[4]
  EC50: 0.092 µg/mL (≈ 0.233 µM)
[5]
  EC50: 0.047 µg/mL (≈ 0.119 µM)
[6]
  EC50: 0.005 µg/mL (≈ 0.0127 µM)
[7]
  EC50: 0.15 µg/mL (≈ 0.38 µM)
